Laboratory results published in ChEMBL document CHEMBL1141900, “Synthesis and antibacterial activity of C2-fluoro, C6-carbamate ketolides, and their C9-oximes” (2005).
≈ marks a conversion by molar mass, not a printed value.

Tests used:
Assay type in all cases: functional
Streptococcus pneumoniae [1] = test: Minimum inhibitory concentration of the compound against 3 […] Streptococcus pneumoniae OC4051 with an erm(B)-ribosomal methylase-mediated resistance was determined
Enterococcus faecalis = test: Minimum inhibitory concentration of the compound againstEnterococcus faecalis ATCC 51299 with an erm(B)-encoded ribosomal methylase was determined
Streptococcus pneumoniae [2] = test: Minimum inhibitory concentration of the compound against 3 […] Streptococcus pneumoniae OC4421 with an mef(A) efflux-mediated resistance was determined
Staphylococcus aureus = test: Minimum inhibitory concentration of the compound against erythromycin-susceptible Staphylococcus aureus Smith OC4172 was determined
Streptococcus pneumoniae [3] = test: Minimum inhibitory concentration of the compound against erythromycin-susceptible Streptococcus pneumoniae was determined
Haemophilus influenzae = test: Minimum inhibitory concentration of the compound against Haemophilus influenzae OC4882 was determined
Mus musculus [4] = test: Effective dose required to inhibit Staphylococcus aureus in mouse was determined after peroral administration of the compound; details: po
Mus musculus [5] = test: Effective dose required to inhibit Staphylococcus aureus in mouse was determined after sub cutaneous administration (6.6-70)

In the case of `CC[C@H]1OC(=O)[C@@](C)(F)C(=O)[C@H](C)[C@@H](O[C@@H]2O[C@H](C)C[C@H](N(C)C)[C@H]2O)[C@](C)(OC(=O)NC/C=C/c2cncc(-c3ccccn3)c2)C[C@@H](C)C(=O)[C@H](C)[C@H]2NC(=O)O[C@@]21C`, the MIC (Streptococcus pneumoniae [1]) is reported as 0.06 µg/mL (≈ 0.0703 µM), the MIC (Enterococcus faecalis) is reported as 4 µg/mL (≈ 4.68 µM) and the MIC (Streptococcus pneumoniae [2]) is reported as 0.12 µg/mL (≈ 0.141 µM). The MIC (Staphylococcus aureus) was 0.25 µg/mL (≈ 0.293 µM), the MIC (Streptococcus pneumoniae [3]) was 0.03 µg/mL (≈ 0.0351 µM) and the MIC (Haemophilus influenzae) was 8 µg/mL (≈ 9.37 µM).

`CC[C@H]1OC(=O)[C@@](C)(F)C(=O)[C@H](C)[C@@H](O[C@@H]2O[C@H](C)C[C@H](N(C)C)[C@H]2O)[C@](C)(OC(=O)NC/C=C/c2ccc(-n3cnnc3)cc2)C[C@@H](C)C(=O)[C@H](C)[C@H]2NC(=O)O[C@@]21C` was tested, and the MIC (Streptococcus pneumoniae [1]) was 0.12 µg/mL (≈ 0.142 µM), the MIC (Enterococcus faecalis) was > 16 µg/mL and the MIC (Streptococcus pneumoniae [2]) was 0.5 µg/mL (≈ 0.593 µM). For the same compound, the MIC (Staphylococcus aureus) was 0.5 µg/mL (≈ 0.593 µM), the MIC (Streptococcus pneumoniae [3]) was 0.06 µg/mL (≈ 0.0712 µM) and the MIC (Haemophilus influenzae) was 8 µg/mL (≈ 9.49 µM).

For `CC[C@H]1OC(=O)[C@@](C)(F)C(=O)[C@H](C)[C@@H](O[C@@H]2O[C@H](C)C[C@H](N(C)C)[C@H]2O)[C@](C)(OC(=O)NC/C=C/c2ccc(-c3cnccn3)cc2)C[C@@H](C)C(=O)[C@H](C)[C@H]2NC(=O)O[C@@]21C`, the MIC (Streptococcus pneumoniae [1]) was 0.06 µg/mL (≈ 0.0703 µM), the MIC (Enterococcus faecalis) was 4 µg/mL (≈ 4.68 µM) and the MIC (Streptococcus pneumoniae [2]) was 0.06 µg/mL (≈ 0.0703 µM). For the same compound, the MIC (Staphylococcus aureus) was 0.25 µg/mL (≈ 0.293 µM), the MIC (Streptococcus pneumoniae [3]) was 0.03 µg/mL (≈ 0.0351 µM) and the MIC (Haemophilus influenzae) was 4 µg/mL (≈ 4.68 µM).

In the case of `CC[C@H]1OC(=O)[C@@](C)(F)C(=O)[C@H](C)[C@@H](O[C@@H]2O[C@H](C)C[C@H](N(C)C)[C@H]2O)[C@](C)(OC(=O)NC/C=C/c2cccnc2)C[C@@H](C)/C(=N\O)[C@H](C)[C@H]2NC(=O)O[C@@]21C`, the MIC (Streptococcus pneumoniae [1]) is reported as 0.12 µg/mL (≈ 0.152 µM), the MIC (Enterococcus faecalis) is reported as > 16 µg/mL and the MIC (Streptococcus pneumoniae [2]) is reported as 0.5 µg/mL (≈ 0.631 µM). For the same compound, the MIC (Staphylococcus aureus) was 0.5 µg/mL (≈ 0.631 µM), the MIC (Streptococcus pneumoniae [3]) was 0.06 µg/mL (≈ 0.0758 µM) and the MIC (Haemophilus influenzae) was 2 µg/mL (≈ 2.53 µM).

For `CC[C@H]1OC(=O)[C@@](C)(F)C(=O)[C@H](C)[C@@H](O[C@@H]2O[C@H](C)C[C@H](N(C)C)[C@H]2O)[C@](C)(OC(=O)NC/C=C/c2cn(-c3ncccn3)cn2)C[C@@H](C)C(=O)[C@H](C)[C@H]2NC(=O)O[C@@]21C`, the MIC (Streptococcus pneumoniae [1]) was 0.06 µg/mL (≈ 0.0711 µM), the MIC (Enterococcus faecalis) was 8 µg/mL (≈ 9.48 µM) and the MIC (Streptococcus pneumoniae [2]) was 0.25 µg/mL (≈ 0.296 µM). It also gave an MIC (Staphylococcus aureus) of 0.12 µg/mL (≈ 0.142 µM), an MIC (Streptococcus pneumoniae [3]) of 0.03 µg/mL (≈ 0.0355 µM) and an MIC (Haemophilus influenzae) of 8 µg/mL (≈ 9.48 µM).

For `CC[C@H]1OC(=O)[C@@](C)(F)C(=O)[C@H](C)[C@@H](O[C@@H]2O[C@H](C)C[C@H](N(C)C)[C@H]2O)[C@](C)(OC(=O)NCc2cn(-c3ncccn3)cn2)C[C@@H](C)C(=O)[C@H](C)[C@H]2NC(=O)O[C@@]21C`, the MIC (Streptococcus pneumoniae [1]) was 0.12 µg/mL (≈ 0.147 µM), the MIC (Enterococcus faecalis) was > 16 µg/mL and the MIC (Streptococcus pneumoniae [2]) was 0.5 µg/mL (≈ 0.611 µM). For the same compound, the MIC (Staphylococcus aureus) was 0.25 µg/mL (≈ 0.306 µM), the MIC (Streptococcus pneumoniae [3]) was 0.03 µg/mL (≈ 0.0367 µM) and the MIC (Haemophilus influenzae) was 4 µg/mL (≈ 4.89 µM).

With `CC[C@H]1OC(=O)[C@@](C)(F)C(=O)[C@H](C)[C@@H](O[C@@H]2O[C@H](C)C[C@H](N(C)C)[C@H]2O)[C@](C)(OC(=O)NC/C=C/c2ccc(-c3ncccn3)cc2)C[C@@H](C)C(=O)[C@H](C)[C@H]2NC(=O)O[C@@]21C` the MIC (Streptococcus pneumoniae [1]) was 0.12 µg/mL (≈ 0.141 µM), the MIC (Enterococcus faecalis) was 8 µg/mL (≈ 9.37 µM) and the MIC (Streptococcus pneumoniae [2]) was 0.12 µg/mL (≈ 0.141 µM). For the same compound, the MIC (Staphylococcus aureus) was 0.5 µg/mL (≈ 0.585 µM), the ED50 (Mus musculus [4]) was > 40 mg/kg and the MIC (Streptococcus pneumoniae [3]) was 0.06 µg/mL (≈ 0.0703 µM). For the same compound, the ED50 (Mus musculus [5]) was 12 mg/kg and the MIC (Haemophilus influenzae) was 8 µg/mL (≈ 9.37 µM).

For `CC[C@H]1OC(=O)[C@@](C)(F)C(=O)[C@H](C)[C@@H](O[C@@H]2O[C@H](C)C[C@H](N(C)C)[C@H]2O)[C@](C)(OC(=O)NC/C=C/c2cn(-c3cnccn3)cn2)C[C@@H](C)C(=O)[C@H](C)[C@H]2NC(=O)O[C@@]21C`, the MIC (Streptococcus pneumoniae [1]) was 0.06 µg/mL (≈ 0.0711 µM), the MIC (Enterococcus faecalis) was 16 µg/mL (≈ 19 µM) and the MIC (Streptococcus pneumoniae [2]) was 0.25 µg/mL (≈ 0.296 µM). It also gave an MIC (Staphylococcus aureus) of 0.25 µg/mL (≈ 0.296 µM), an MIC (Streptococcus pneumoniae [3]) of 0.03 µg/mL (≈ 0.0355 µM) and an MIC (Haemophilus influenzae) of 8 µg/mL (≈ 9.48 µM).

Work on `CC[C@H]1OC(=O)[C@@](C)(F)C(=O)[C@H](C)[C@@H](O[C@@H]2O[C@H](C)C[C@H](N(C)C)[C@H]2O)[C@](C)(OC(=O)NC/C=C/c2ccc3ncccc3c2)C[C@@H](C)C(=O)[C@H](C)[C@H]2NC(=O)O[C@@]21C` yielded an MIC (Streptococcus pneumoniae [1]) of 0.06 µg/mL (≈ 0.0726 µM), an MIC (Enterococcus faecalis) of 4 µg/mL (≈ 4.84 µM) and an MIC (Streptococcus pneumoniae [2]) of 0.06 µg/mL (≈ 0.0726 µM). The MIC (Staphylococcus aureus) was 0.25 µg/mL (≈ 0.302 µM), the MIC (Streptococcus pneumoniae [3]) was 0.06 µg/mL (≈ 0.0726 µM) and the MIC (Haemophilus influenzae) was 4 µg/mL (≈ 4.84 µM).

In the case of `CC[C@H]1OC(=O)[C@@](C)(F)C(=O)[C@H](C)[C@@H](O[C@@H]2O[C@H](C)C[C@H](N(C)C)[C@H]2O)[C@](C)(OC(=O)NCCOCc2ccc(-c3ncccn3)cc2)C[C@@H](C)/C(=N\O)[C@H](C)[C@H]2NC(=O)O[C@@]21C`, the MIC (Streptococcus pneumoniae [1]) is reported as 0.06 µg/mL (≈ 0.0676 µM), the MIC (Enterococcus faecalis) is reported as 16 µg/mL (≈ 18 µM) and the MIC (Streptococcus pneumoniae [2]) is reported as 0.25 µg/mL (≈ 0.282 µM). The MIC (Staphylococcus aureus) was 0.5 µg/mL (≈ 0.564 µM), the MIC (Streptococcus pneumoniae [3]) was 0.06 µg/mL (≈ 0.0676 µM) and the MIC (Haemophilus influenzae) was 8 µg/mL (≈ 9.02 µM).

`CC[C@H]1OC(=O)[C@@](C)(F)C(=O)[C@H](C)[C@@H](O[C@@H]2O[C@H](C)C[C@H](N(C)C)[C@H]2O)[C@](C)(OC(=O)NC/C=C/c2ccc(-n3cccn3)cc2)C[C@@H](C)C(=O)[C@H](C)[C@H]2NC(=O)O[C@@]21C` was tested, and the MIC (Streptococcus pneumoniae [1]) was 0.12 µg/mL (≈ 0.143 µM), the MIC (Enterococcus faecalis) was 8 µg/mL (≈ 9.5 µM) and the MIC (Streptococcus pneumoniae [2]) was 0.5 µg/mL (≈ 0.594 µM). For the same compound, the MIC (Staphylococcus aureus) was 0.25 µg/mL (≈ 0.297 µM), the MIC (Streptococcus pneumoniae [3]) was 0.03 µg/mL (≈ 0.0356 µM) and the MIC (Haemophilus influenzae) was 8 µg/mL (≈ 9.5 µM).

In the case of `CC[C@H]1OC(=O)[C@@](C)(F)C(=O)[C@H](C)[C@@H](O[C@@H]2O[C@H](C)C[C@H](N(C)C)[C@H]2O)[C@](C)(OC(=O)NCc2ccc(-c3ccncn3)cc2)C[C@@H](C)C(=O)[C@H](C)[C@H]2NC(=O)O[C@@]21C`, the MIC (Streptococcus pneumoniae [1]) is reported as 0.06 µg/mL (≈ 0.0725 µM), the MIC (Enterococcus faecalis) is reported as 16 µg/mL (≈ 19.3 µM) and the MIC (Streptococcus pneumoniae [2]) is reported as 0.12 µg/mL (≈ 0.145 µM). It also gave an MIC (Staphylococcus aureus) of 0.12 µg/mL (≈ 0.145 µM), an MIC (Streptococcus pneumoniae [3]) of 0.03 µg/mL (≈ 0.0362 µM) and an MIC (Haemophilus influenzae) of 4 µg/mL (≈ 4.83 µM).
